Where two headings read alike, the source gives them in different places.

The source of these data is patent US20220152100A1, “METHODS FOR CONTROLLED ACTIVATION OR ELIMINATION OF THERAPEUTIC CELLS” (Bellicum Pharmaceuticals, Inc., priority 2014, published 2022).

Assay [1] relates to 293 cells. Description: SEAP assay: iMC (tandem FKBP) plus FRBL2-Caspase-9. The conditions noted are these: tandem FKBPs (iMC) present. Format: cell-based, human. As for the experimental part: FIGS. 16A and 16B are line graphs showing that tandem FKBP scaffold mediates FRBL2. Caspase activation in the presence of rapalogs. FIG. 16A. HEK-293 cells were transfected with 1 μg each of SRα-SEAP reporter plasmid, Δmyr.iMC.2A-anti-CD19.CAR.CD3 (pBP0608), and FRBL2. Caspase-9 (pBP0467). […] After ON incubation, cell supernatants were assayed for SEAP activity, as previously described. FIG. 16B. Similar to the experiment described in (FIG. 16A), except that cells were transfected with a membrane-localized (myristoylated) iMC.2A-CD19.CAR.CD3ζ (pBP0609), instead of non-myristoylated Amyr.iMC.2A-CD19.CAR.CD3ζ (pBP0608).
In a second test for rapalog-mediated scaffold-based activation of Caspase-9, 293 cells were transiently transfected with SRα-SEAP reporter plasmid, plus myristoylated or non-myristoylated inducible iMC co-expressed with 1st generation anti-CD19 CAR, plus FRBL2-fused Caspase-9 (plasmid pBP0467) (FIG. 16). […] Thus, rapamcyin and analogs can activate Caspase-9 via a molecular scaffold comprised of FRB or FKBP12 domains.

Another assay has as its system 293T cells. Description: SeAP reporter assay: FRBL-Caspase9 plus FKBPv12-Caspase9 heterodimerization. The assay is classed as cell-based, human. Here is the method: HEK 293T cells (5×10^5) were seeded on a 100-mm tissue culture dish in 10 mL DMEM4500, supplemented with glutamine, penicillin/streptomycin and 10% fetal calf serum. After 16-30 hours incubation, cells were transfected using Novagen's GeneJuice® protocol. Briefly, for each transfection, 0.5 mL OptiMEM was pipeted into a 1.5-mL microcentrifuge tube and 15 μL GeneJuice reagent added followed by 5 sec. vortexing. Samples were rested 5 minutes to settle the GeneJuice suspension. DNA (5 μg total) was added to each tube and mixed by pipetting up and down four times. Samples were allowed to rest for 5 minutes for GeneJuice-DNA complex formation and the suspension added dropwise to one dish of 293T cells. A typical transfection contains 1 μg SRα-SEAP (pBP0046) (3), 2 μg FRB-Caspase-9 (pBP0463) and 2 μg FKBPv12-Caspase-9 (pBP0044) (7).
24 hours following transfection (4.1), 293T cells were split to 96-well plates and incubated with dilutions of dimerizing drugs. Briefly, 100 μL media was added to each well of a 96-well flat-bottom plate. Drugs were diluted in tubes to a concentration 4× the top concentration in the gradient to be place on the plate. […] 100 μL from each drug-containing well was then transferred to the adjacent well and the cycle repeated 10 times to produce a serial two-fold step gradient. The last wells were untreated and serve as a control for basal reporter activity. […]
24 hours after drug stimulation, 96-well plates were wrapped to prevent evaporation and incubated at 65®C for 2 hours to inactivate endogenous and serum phosphatases while the heat-stable SeAP reporter remains (1, 4, 12). […] Phosphatase activity was measured by fluorescence with excitation at 355 nm and emission at 460 nm. […]
FIG. 37—Drug induced programmed cell death by homodimerization or heterodimerization of tagged caspase 9. […] Reporter activity is expressed as a percentage of the average of 8 control wells containing no drug. […]
FIG. 38—Rapalog-induced cell death switch. […] Reporter activity is expressed as a percentage of the average of 8 wells containing no drug. […]
For orientation: Reporter assays use an easily measured gene product as a stand-in for the process of interest.

For assay [2], the system named is 293 cells. Description: SEAP assay: FRBl2-tagged CAR plus iCaspase-9, two-tiered apoptosis. The assay is classed as cell-based, human. The source says:
FIGS. 6A and 6B provide the results of an assay of two-tiered activation of apoptosis.
As a proof of principal, two tandem FRBl domains were fused to either a 1st generation Her2-CAR or to a 1st generation CD19-CAR co-expressing inducible Caspase-9. 293 cells were transiently transfected with a constitutive reporter plasmid, SRα-SEAP, along with normalized levels of expression plasmids encoding Her2-CAR-FRBl2, iCaspase-9, Her2-CAR-FRBl2+iCasp9, iC9-CAR(19).FRBl2 (coexpressing both CD19-CAR-FRBl2 and iCaspase9), or control vector. […] After overnight incubation with drugs, SEAP activity was determined. […] This dose-dependent decrease required the presence of both the FRB-tagged CAR and the FKBP-tagged Caspase-9. […] Moreover, on- or off-target-mediated CAR clustering should increase the sensitivity of killing primarily at the site of scFv engagement.

For the next assay, the system named is CD3+ΔCD19+ cells. Briefly: CASPALLO phase 1 clinical trial: AP1903 in patients with GvHD after iCasp9+ T cells. The conditions noted are these: within 24 hours.
In assay [3] the test system is 293 cells. Description: SEAP assay: iMC.FRBL / iMC.FRBL2 plus Caspase-9. The conditions noted are these: Caspase-9 with iMC.FRBL or iMC.FRBL2 and anti-HER2 CAR. The assay is classed as cell-based, human. As for the experimental part: HEK-293 cells were transfected with 1 μg of SRα-SEAP constitutive reporter plasmid along with either negative (Neg) control, eGFP (pBP0047), CaspaCIDe (iC9/pBP0044) alone, or CaspaCIDe along with iMC.FRBL (pBP0655)+anti-HER2.CAR.Fpk2 (pBP0488) or iMC.FRBL2 (pBP0498)+anti-HER2.CAR.Fpk2. Cells were then plated with half-log dilutions of rimiducid or rapamycin and assayed for SEAP as previously described. Diminution of SEAP activity correlates with cell elimination. Schematic represents one possible rapamycin-mediated complex of signaling domains, which lead to Caspase-9 clustering and apoptosis.
To determine if multimers of FRB would still act as a recruitment scaffold to enable rapalog-mediated Caspase-9 dimerization when attached to another signaling domain, 1 or 2 FRBL domains were fused to the potent chimeric stimulatory molecule, MyD88/CD40, to derive iMC.FRBL (pBP0655) and iMC.FRBL2 (pBP0498), respectively (FIG. 9B). As an initial test, 293 cells were transiently transfected with reporter plasmid SRα-SEAP, Caspase-9, a 1st generation anti-HER2 CAR (pBP0488) and (pBP0655 or pBP0498) (FIG. 15). Control transfections contained Caspase-9 (pBP0044) alone or eGFP expression vector (pBP0047). […] Thus, heterodimerizer-mediated activation of Caspase-9 is possible in cells containing multimers of FRBL fused to distinct proteins, such as MyD88/CD40.

For assay [4], the system named is 293 cells.
Method: FIG. 12B: Cultures of HEK-293 cells were transfected (via Genejuice, Novagen) with the constitutive SRα-SEAP reporter plasmid (pBP0046, 1 μg), a fusion of human FKBP12 with human Caspase-9 (pBP0044, 2 μg) and FRB-encoding expression constructs, containing four copies of FRBL (pBP0725, 2 μg) or control vectors encoding zero or one copy of FRBL. […] FIG. 12C: Reporter assays were performed as in (B), but FRB-scaffolds were expressed from constructs encoding iterated FRBL domains with an amino-terminal myristoylation-targeting sequence and two (pBP0465) or four copies (pBP0721) of the FRBL domain.
A subset of constructs also contained the myristoylation-targeting domain from v-Src for membrane localization of the FRB-scaffold (FIG. 12A). 293 cells were transfected with the SRα-SEAP reporter plasmid along with FKBP12-ΔCaspase-9 (iCaspase-9/CaspaCIDe), plus 1 of several FRB-based, non-myristoylated scaffold proteins containing 0, 1, or 4 tandem copies of FRBL.
Assay [5] has as its system 293 cells. This is another data set of the same source.
From the text: To determine if the polarity of heterodimerization and Caspase-9 assembly could be reversed, one to four 1 to 4 tandem copies of FKBP12 were subcloned into expression vector, pSH1, as above. […] As above, 293 cells were transfected with the SRα-SEAP reporter plasmid along with FRBL-ΔCaspase-9, plus a non-myristoylated scaffold protein containing 1 or 4 tandem copies of FKBP12.
The target of assay [6] is wt FRB (K2095 T2098 W2101) (Homo sapiens, UniProt P42345+P62942). The conditions noted are these: cited from earlier work.
The target in assay [7] is Her2-CAR-FRBl2 (1st generation Her2-CAR with two tandem FRBl domains at its carboxy terminus). Description: cell-based or functional assay.
Assay [8] addresses FRBL x4 scaffold, not myristoylated (plasmid pBP0725, pSH1-FRBI.FRBI′.LS.FRBI″.FRBI′′′). Description: cell-based or functional assay.
Assay [9] has as its target CD19-CAR-FRBl2 (1st generation CD19-CAR with two tandem FRBl domains, co-expressed with iCaspase-9 from iC9-CAR(19).FRBl2). Briefly: cell-based or functional assay.
Assay [10] concerns the target FKBP12 x4 scaffold (plasmid pBP0722, pSH1-Fpk-Fpk′.LS.Fpk″.Fpk′′′.LS.HA) (Homo sapiens (Human)) (UniProt P62942). Description: cell-based or functional assay.
Where [11] appears, read: FRBL-Caspase9 plus FKBPv12-Caspase9.

FRBL x4 scaffold, not myristoylated (plasmid pBP0725, pSH1-FRBI.FRBI′.LS.FRBI″.FRBI′′′), sequence (chain, as listed by the source limits assumed): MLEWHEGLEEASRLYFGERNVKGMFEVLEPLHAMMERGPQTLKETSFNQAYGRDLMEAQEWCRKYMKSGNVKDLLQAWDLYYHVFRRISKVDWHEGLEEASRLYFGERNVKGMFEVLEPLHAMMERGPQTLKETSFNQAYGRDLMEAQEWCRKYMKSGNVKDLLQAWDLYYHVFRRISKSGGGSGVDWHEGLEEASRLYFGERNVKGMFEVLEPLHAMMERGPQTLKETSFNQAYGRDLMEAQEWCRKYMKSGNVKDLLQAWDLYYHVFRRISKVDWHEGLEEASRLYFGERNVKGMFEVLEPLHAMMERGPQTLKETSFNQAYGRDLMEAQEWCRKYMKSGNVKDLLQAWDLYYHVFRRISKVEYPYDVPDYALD

As to `CC[C@H](C(=O)N1CCCC[C@H]1C(=O)O[C@H](CCc1ccc(OC)c(OC)c1)c1cccc(OCC(=O)NCCNC(=O)COc2cccc([C@@H](CCc3ccc(OC)c(OC)c3)OC(=O)[C@@H]3CCCCN3C(=O)[C@@H](CC)c3cc(OC)c(OC)c(OC)c3)c2)c1)c1cc(OC)c(OC)c(OC)c1` (relative stereo) [AP1903, 2-Piperidinecarboxylic acid, 1-[(2S)-1-oxo-2-(3,4,5-trimethoxyphenyl)butyl]-, 1,2-ethanedilbis[imino(2-oxo-2,1-ethanediyl)oxy-3,1-phenyleneR1R)-3-(3,4-dimethoxyphenyl)propylidene]] ester, [2S-[1(R*),2R*[S*[S*[1(R*),2R*]]]]]-(9CI)], the “activation of FRBL2-Caspase-9” value in the assay on 293 cells [1] is “not activated”. The “cell death (loss of SeAP reporter)” value was “effectively permitted homodimerization and induction of Caspase-9” in the assay with 293T cells (FKBPv12-Caspase-9 with control vector or FRB without caspase fusion); “dose-dependent homodimerization of only FKBP12-Caspase9, leading to dimerization and activation of apoptosis” with 293T cells (setting [11]). Moreover, the “SEAP activity, of normal levels” value in the assay with 293 cells [2] (iCaspase-9, overnight) is “about 20%”. Besides, the “further reduction of CD3+ΔCD19+ cells” value in the assay with CD3+ΔCD19+ cells is recorded as “further log reduction”. Besides, the “SEAP reduction / cell killing” value in the assay with 293 cells [3] is listed as “killed by Caspase-9 homodimerization”.

A word on the IC50: it is the concentration at which inhibition is half-maximal. Read a high IC50 as weaker potency. As to `CO[C@H]1C[C@@H]2CC[C@@H](C)[C@@](O)(O2)C(=O)C(=O)N2CCCC[C@H]2C(=O)O[C@H]([C@H](C)C[C@@H]2CC[C@@H](O)[C@H](OC)C2)CC(=O)[C@H](C)/C=C(\C)[C@@H](O)[C@@H](OC)C(=O)[C@H](C)C[C@H](C)/C=C/C=C/C=C/1C` [rapamycin], the IC50 in the assay with 293 cells [4] and with 293 cells [5] was about 3 nM throughout. Moreover, the “decrease of SEAP activity” value in the assay with 293 cells [2] (FRB-tagged CAR and FKBP-tagged Caspase-9, overnight) was about 50%.

Turning to `COC1CC(CC(C)C2CC(=O)C(C)C=C(C)C(O)C(OC)C(=O)C(C)CC(C)C=CC=CC=C(C)C(OC(C)C)CC3CCC(C)C(O)(O3)C(=O)C(=O)N3CCCCC3C(=O)O2)CCC1O` (stereo not shown) [C7-isopropoxy-rapamycin, C7-isopropoxyrapamycin], in the assay with 293 cells [1], the “activation of FRBL2-Caspase-9” value was “activated”. Moreover, in the assay with 293T cells (setting [11]), the “cell death (loss of SeAP reporter)” value was “dose-dependent high efficacy cell death switch”.

By EC50 is commonly meant the concentration giving half of the maximal effect. On to “S-Butanesulfonamidorap [S-Butanesulfonamidorap (AP23050)]”, for which, in assay [6], the EC50 is about 2.7 nM.

In the case of “FKBP12v36-ΔCaspase-9 fusion protein (iCaspase-9; plasmid pBP0044, pSH1-iCaspase9wt)”, the SRα-SEAP reporter activity after overnight rapamycin in transfected 293 cells in assay [7] and in [9] was 50 % decrease each time. Moreover, the IC50 of rapamycin or C7-isopropoxy-rapamycin for diminution of constitutive SRα-SEAP reporter activity (cell death) in transfected 293 cells in [8] is 3 nM.

With “FRBL-ΔCaspase-9 fusion protein (plasmid pBP0463, pSH1-FRBL.dCaspase9.T2A)”, in [10], the IC50 of rapamycin or C7-isopropoxy-rapamycin for diminution of constitutive SRα-SEAP reporter activity (cell death) in transfected 293 cells came to 3 nM.
